Experimental data taken from patent US6051596A, “Immunosuppressive compositions” (AnorMED, Inc., priority 1997, dated 2000).

Test system: Lewis-Brown Norway F1 hybrid cardiac allografts in Lewis rat recipients
Test: Acute cardiac allograft rejection model in rats (procedure of Kupiec-Weglinski)
Type: in vivo
Details: for GRAFT SURVIVAL (days) MEAN ± SD: N=7
Description: The therapeutic efficacy of a pharmaceutical composition of the invention was tested according to the procedure of Kupiec-Weglinski, J. W., et al., (1988) Transplant Proc. 2:207-216 (hereinafter "Kupiec-Weglinski") to determine its in vivo potency as an acute transplantation/graft rejection modulator.
Briefly, to preform these experiments, the following protocol was employed. Male inbred adult rats (Lewis-Brown Norway F1 Hybrid rats, obtained from Harlan sprague-Dawley Inc., Indianapolis, Ind.) were used. Lewis-Brown Norway F1 Hybrid cardiac allografts were transplanted to the abdominal great vessels of Lewis recipients. The animals were administered compounds according to the following five distinct regimens.
Protocol I. Pretreatment Protocol--20 mg/kg/day of Compound A was administered orally for 7 consecutive days prior to transplantation (days -7 to -1).
Protocol II Treatment Protocol--20 mg/kg/day of Compound A was administered orally for 7 consecutive post-transplant days (days 0-6) followed by intermittent 5 day courses (days 9-13 and 16-20).
Protocol III Pretreatment and Treatment Protocol--20 mg/kg/day of Compound A was administered orally for 7 consecutive days prior to transplantation (days -7 to -1) followed by intermittent 5 day courses (days 9-13 and 16-20).
Ventricular contractions were assessed daily by palpation through the recipient flank. Rejection was defined as the day of cessation of myocardial contractions and confirmed histologically.

CCCC1(CCC)CCC2(CCN(CCCN(C)C)C2)CC1 [Compound A, N,N-dimethyl-8,8-dipropyl-2-azaspiro[4,5]-decane-2-propanamine]
GRAFT SURVIVAL (days) MEAN ± SD (Protocol I pretreatment: 20 mg/kg/day orally, days -7 to -1): 14.7 ± 5.8 days | GRAFT SURVIVAL (days) MEAN ± SD (Protocol II treatment: 20 mg/kg/day orally, days 0-6, then days 9-13 and 16-20): 16.7 ± 2.0 days | GRAFT SURVIVAL (days) MEAN ± SD (Protocol III pretreatment and treatment: 20 mg/kg/day orally, days -7 to -1, then days 9-13 and 16-20): 16.0 ± 4.3 days | average graft survival time (single compound protocols (pretreatment, treatment or both), 20 mg/kg/day orally, untreated average 7 days): 16 days
